One molecule from article PMC2752052 (Analytical biochemistry, 2009) can be followed below.

For this experiment, the target named is T1, Sirt1 (Homo sapiens, UniProt Q96EB6).
T1 sequence (Q96EB6 2-747): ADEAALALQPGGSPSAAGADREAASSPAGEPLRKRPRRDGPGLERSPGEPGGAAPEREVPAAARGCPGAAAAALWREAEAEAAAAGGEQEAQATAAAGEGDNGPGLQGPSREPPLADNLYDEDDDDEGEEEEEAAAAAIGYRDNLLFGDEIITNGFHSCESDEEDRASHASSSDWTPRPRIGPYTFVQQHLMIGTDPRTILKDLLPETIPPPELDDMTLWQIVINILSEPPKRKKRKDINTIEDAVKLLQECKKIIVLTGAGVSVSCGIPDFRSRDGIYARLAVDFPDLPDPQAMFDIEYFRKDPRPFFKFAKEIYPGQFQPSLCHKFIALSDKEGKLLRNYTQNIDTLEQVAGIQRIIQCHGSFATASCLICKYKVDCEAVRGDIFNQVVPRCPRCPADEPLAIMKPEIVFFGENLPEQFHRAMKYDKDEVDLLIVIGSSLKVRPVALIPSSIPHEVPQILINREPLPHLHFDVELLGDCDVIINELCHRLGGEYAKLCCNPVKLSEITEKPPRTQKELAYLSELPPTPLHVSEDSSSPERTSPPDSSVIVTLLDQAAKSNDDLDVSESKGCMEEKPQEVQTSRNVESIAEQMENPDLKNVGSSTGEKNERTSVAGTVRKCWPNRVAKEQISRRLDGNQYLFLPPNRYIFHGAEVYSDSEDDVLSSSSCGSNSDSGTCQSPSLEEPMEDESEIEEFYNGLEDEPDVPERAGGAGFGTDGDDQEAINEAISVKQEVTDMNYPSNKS
The experiment can be described thus: nicotinamidase/glutamate dehydrogenase coupled assay. It is filed as biochemical.

Take `Nc1ncnc2c1ncn2[C@@H]1O[C@H](COP(=O)(O)OP(=O)(O)OC[C@H]2OC(O)[C@H](O)[C@@H]2O)[C@@H](O)[C@H]1O` (stereo partly shown) [ADP-ribose]: inhibition was half-maximal at 77 ± 4 µM (IC50).
